Where “and” joins values, the source holds several entries; their conditions need not be identical. Identical values can stand only once.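 Assay format: 96-well plates, 48-hour exposure. GI50 is the concentration that inhibits growth by half. TGI denotes the concentration required for complete inhibition of growth.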
How the values were obtained:
Test in all cases: growth of human tumour cells (NCI), 48 h
CCRF-CEM leukemia = system: CCRF-CEM leukemia
LOX IMVI melanoma = system: LOX IMVI melanoma
MALME-3M melanoma = system: MALME-3M melanoma
MDA-MB-435 = system: MDA-MB-435
SF-539 CNS = system: SF-539 CNS
SK-MEL-2 melanoma = system: SK-MEL-2 melanoma
SK-MEL-28 melanoma = system: SK-MEL-28 melanoma
SK-MEL-5 melanoma = system: SK-MEL-5 melanoma
SNB-19 CNS = system: SNB-19 CNS
SR leukemia = system: SR leukemia

Row | SMILES | GI50 (CCRF-CEM leukemia) | TGI (CCRF-CEM leukemia) [µM] | GI50 (LOX IMVI melanoma) [µM] | TGI (LOX IMVI melanoma) [µM] | GI50 (MALME-3M melanoma) [µM] | TGI (MALME-3M melanoma) [µM] | GI50 (MDA-MB-435) | TGI (MDA-MB-435) | GI50 (SF-539 CNS) [µM] | TGI (SF-539 CNS) [µM] | GI50 (SK-MEL-2 melanoma) [µM] | TGI (SK-MEL-2 melanoma) [µM] | GI50 (SK-MEL-28 melanoma) [µM] | TGI (SK-MEL-28 melanoma) [µM] | GI50 (SK-MEL-5 melanoma) | TGI (SK-MEL-5 melanoma) | GI50 (SNB-19 CNS) [µM] | TGI (SNB-19 CNS) [µM] | GI50 (SR leukemia) [µM] | TGI (SR leukemia) [µM]
1 | Cc1cc(N/N=C/c2nc(-c3ccc(Br)cc3)oc2C)c2cc(Br)ccc2n1 | 2 µM | 29.7 | 1.99 | 4.3 | 2.1 | 4.48 | 2.25 µM | 5.34 µM | 1.76 | 3.5 | 25.6 | 68.1 | 2.39 | 6.26 | 13.4 µM | 26.1 µM | 3.87 | 23.4 | 0.355 | > 100
2 | COc1cc2c(cc1O)C1Cc3ccc(OC)c(O)c3C(C2)N1C (stereo not given) | – | > 100 | – | > 100 | – | > 100 | – | > 100 µM | – | > 100 | – | > 100 | – | > 100 | – | > 100 µM | – | > 100 | – | –
3 | CC(C)OC(=O)NNc1cc(Cl)ccc1Cl | – | > 100 | – | > 100 | – | > 100 | – | > 100 µM | – | > 100 | – | > 100 | – | > 100 | – | > 100 µM | – | > 100 | – | –
4 | CC(=O)/C=C/c1ccc(C#Cc2ccccc2)s1 | 22.2 µM | 47.6 | 18 | 31.9 | 20.5 | 40.7 | 13.8 µM | 29.5 µM | 17.3 | 31 | 20.5 | 35.4 | 15.5 | 28.8 | 11.1 µM | 23.1 µM | 12.7 | 25.9 | – | –
5 | NC(CS/C(Cl)=C/Cl)C(=O)O (stereo not given) | 20.3 µM | > 100 | 1.02 | 4.34 | 62.4 | > 100 | 9.25 µM | 31.5 µM | > 100 | > 100 | 22.2 | > 100 | 43.6 | > 100 | 3.11 µM | 12.9 µM | 30.7 | > 100 | 34.9 | > 100
6 | O=C(/C=C/c1cc(CN2CCOCC2)c(O)c2ncccc12)c1cc(CN2CCOCC2)c(O)c2ncccc12 | 0.05 µM | > 100 | 0.0394 | > 100 | 0.145 | > 100 | < 0.0211 µM | > 100 µM | 0.0433 | 23.6 | 0.0637 | 4.99 | 0.594 | > 100 | 0.0237 µM | 0.0607 µM | 0.0482 | > 100 | 0.0463 | > 100
7 | CC(C)S(=O)(=O)c1ccccc1Nc1nc(Nc2cccc(NC(=O)CN)c2)ncc1Cl | < 0.0355 µM | 4.5 | 0.0384 | 0.258 | 1.22 | 3.12 | 0.553 µM | 2.16 µM | 0.0455 | 0.334 | 0.347 | 1.57 | 0.406 | 2.25 | 0.136 µM | 0.894 µM | 0.251 | 10.1 | 0.0101 | 0.423
8 | COc1cc2ncn(-c3cc(OCCc4ccccc4)c(C(N)=O)s3)c2cc1OC | 8.5 µM | > 25 | > 25 | > 25 | > 25 | > 25 | 9.55 µM | > 25 µM | > 25 | > 25 | > 25 | > 25 | > 25 | > 25 | 11.3 µM | > 25 µM | > 25 | > 25 | 13.6 | > 25
9 | Cc1c(C2=C(Br)C(=O)N(C)C2=O)c(=O)n(C)c(=O)n1C | – | 48 | – | 32.3 | – | – | – | 58.6 µM | – | 34.6 | – | 35.2 | – | > 100 | – | 52.1 µM | – | > 100 | – | 75.9
10 | COc1ccc(C(=O)COc2cccc(/C=C3\Oc4ccc5ccccc5c4C3=O)c2)cc1 | 0.327 µM | 1.44 | 1.56 | 3.08 | 1.74 | 5.51 | 5.24 µM | 20 µM | 13.4 | 26.3 | 3.76 | 16.6 | 15.3 | 28.7 | 10.9 µM | 23.9 µM | 15.5 | 29.4 | – | –
11 | CCCCC1(CN2CCOCC2)S/C(=N/c2nc(CC(=O)OCC)cs2)NC1=O (stereo not given) | – | – | 20.3 | 42.5 | 25.4 | > 100 | 30.3 µM | > 100 µM | 29 | 89.9 | 29.7 | 89.2 | 38.4 | > 100 | 24.2 µM | 75.2 µM | 38.4 | > 100 | 26.2 | 65.9
12 | N#CC(=NCCO)C1=C(O)c2ccccc2C1=O | – | – | – | > 100 | – | > 100 | – | > 100 µM | – | > 100 | – | > 100 | – | > 100 | – | > 100 µM | – | > 100 | – | > 100
13 | Cn1cc(C2=C(c3cn(CCCCCN)c4ccccc34)C(=O)NC2=O)c2ccccc21 | 5.58 µM | > 20.6 | 4.9 | 13.5 | 18.4 | > 25 | 2.4 µM | > 25 µM | 6.42 | 21.6 | 7.1 | 18.2 | 12.7 | > 25 | 7.46 µM | > 19.7 µM | > 25 | > 25 | – | –
14 | C[C@]12CC[C@H](O)C[C@H]1CC[C@@H]1[C@@H]2CC[C@]2(C)[C@@H](C3=CC(=O)OC3)CC[C@]12O | – | 44.4 | – | 0.533 | – | 0.523 | – | 1.02 µM | – | 0.16 | – | 1.56 | – | 2.01 | – | 0.205 µM | – | 2.2 | – | –
15 | COc1ccc2c(c1)[C@@]13CCCC[C@H]1[C@@H](C2)N(C)CC3=O | – | 73.6 | – | 30.9 | – | 33.1 | – | 42.7 µM | – | – | – | 53.9 | – | 30 | – | 61 µM | – | > 100 | – | 42
16 | CC(C)N=c1cc2n(-c3ccc(Cl)cc3)c3ccccc3nc-2cc1Nc1ccc(Cl)cc1 | 0.75 µM and 2.49 µM | > 100 | – | – | – | – | 1.04 µM and 1.8 µM | 2.74 µM and 4.46 µM | > 50 | > 50 | – | – | > 50 | > 50 | 0.634 µM and 1.28 µM | 1.26 µM and 2.59 µM | 2.21 | > 50 | 2.48 | > 100

Source: PubChem BioAssay (NCI)
